Measured values as given in patent US10954221B2, “GLP-1R agonists and uses thereof” (QILU REGOR THERAPEUTICS INC., priority 2019, dated 2021).

Legend:
GLP1R [1] = target: T1, GLP1R (Homo sapiens, UniProt P43220); parameters: Emax: dose or concentration left out as unconfirmed; settings: for Emax: CHO-K1, […], read-out: β-arrestin recruitment Bmax (%)
Target sequence in this assay (P43220 24-463): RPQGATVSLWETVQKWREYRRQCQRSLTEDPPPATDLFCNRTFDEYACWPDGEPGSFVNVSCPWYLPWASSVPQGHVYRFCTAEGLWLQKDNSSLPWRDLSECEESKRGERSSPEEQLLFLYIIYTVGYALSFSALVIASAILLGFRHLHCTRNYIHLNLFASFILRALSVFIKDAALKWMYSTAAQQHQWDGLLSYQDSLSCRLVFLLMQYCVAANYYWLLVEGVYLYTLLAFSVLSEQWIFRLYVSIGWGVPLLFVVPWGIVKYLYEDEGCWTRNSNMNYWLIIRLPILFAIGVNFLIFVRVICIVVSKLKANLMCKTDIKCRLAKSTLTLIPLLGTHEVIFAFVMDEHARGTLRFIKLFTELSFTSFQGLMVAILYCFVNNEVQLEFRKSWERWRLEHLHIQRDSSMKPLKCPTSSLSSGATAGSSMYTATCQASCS
Target sequence in this assay (P32121 whole entry partner): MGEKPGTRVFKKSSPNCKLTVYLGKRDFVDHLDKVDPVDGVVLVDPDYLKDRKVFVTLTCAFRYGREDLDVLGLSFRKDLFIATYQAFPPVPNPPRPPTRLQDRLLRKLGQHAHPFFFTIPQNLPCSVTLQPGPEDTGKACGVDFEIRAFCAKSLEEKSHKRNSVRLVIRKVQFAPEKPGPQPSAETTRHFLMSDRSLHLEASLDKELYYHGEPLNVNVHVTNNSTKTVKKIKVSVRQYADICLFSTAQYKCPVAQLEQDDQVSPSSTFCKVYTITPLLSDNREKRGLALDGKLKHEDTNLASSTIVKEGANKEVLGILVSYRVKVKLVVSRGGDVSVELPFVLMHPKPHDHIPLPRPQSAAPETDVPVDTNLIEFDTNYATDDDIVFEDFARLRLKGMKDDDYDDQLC
Description: Frozen cells were quickly thawed and 10 mL of cell plating medium (provided by the kit) was added to thawed cells. Cells were stored in a 37° C. incubator under 5% CO2 and kept for approximately 48 hours until ready to run the assay.
Reference and test compounds were dissolved in 100% DMSO. […] 5 μL of this solution was added to 20 μL cell medium in assay plate for a final top concentration of 10 μM. Plates were then incubated at 37° C. under 5% CO2 for 90 min.
Following 90 min incubation, detection reagents were made up by combining 1 part Galacton Star Substrate with 5 parts Emerald II™ Solution, and 19 parts of PathHunter Cell Assay Buffer, respectively. 12.5 μl detection reagent was added to each well. The plates were then incubated at room temperature in dark for 60 min. Plates were then read on Envision for 0.1 sec/well.
Cells were plated at a density of 1000 or 2000 cells/20 μL/well. Frozen cells were quickly thawed and added to 10 mL of cell plating medium. Cells were stored in a 37 degree incubator under 5% CO2 and left for approximately 48 hours until ready to run the assay
Prepare 10× concentration of an agonist in serum free DMEM, and add all solutions into the compound plate. 2.5 μL of this solution was added to 20 μL cell medium in assay plate for a final top concentration of 10 μM. Plates were incubated at 37° C. under 5% CO2 for 30 min. An additional 2.5 μL of Buffer was added to the entire plate for agonist mode and incubated at 37° C. for another 90 min.
Following 90 min incubation, detection reagents were made up as described. 12.5 μL was added to all wells. The plates were then incubated at room temperature in dark for 60 min. Plates were then read on Envision for 0.1 sec/well.
Data analysis: GraphPad Prism 6 was used for establishment of progression curve. EC50s or IC50s were determined by 4-parameter logistic dose response equation.

GLP1R [2] = target: T1, GLP1R; assay: GLP1R cAMP assay (HTRF), HEK293/GLP-1R/CRE/Luc, Clone 4
Target sequence in this assay (P43220 24-463): as the sequence (P43220 24-463) above

GLP1R [3] = target: T1, GLP1R; assay: β-Arrestin-mediated GLP1R internalization assay (PathHunter U2OS cells); type: cell-based; parameters: host or cells: PathHunter engineered U2OS cells; settings: averaged Bmax where applicable, Percentage of Control GLP-1 (7-37), top 10 μM, 180 min
Text: A similar assay can also be used to assess the extent of signal attenuation due to GLP-1R internalization (the Internalization Assay). In this assay, activated GLP1R Internalization cells were engineered to co-express an untagged GLP1R, Enzyme Acceptor (EA) tagged β-Arrestin, and a ProLink™ (PK) tag localized to the endosomes. Activation of the GLP1R induces β-Arrestin recruitment, which leads to internalization of the Receptor/Arrestin-EA complex in PK-tagged endosomes. This forces complementation of the two β-galactosidase enzyme fragments (EA and PK) to form a functional enzyme that hydrolyzes substrate to generate a chemiluminescent signal.
Frozen cells were quickly thawed and 10 mL of cell plating medium (provided by the kit) was added to thawed cells. Cells were stored in a 37° C. incubator and kept for approximately 48 hours until ready for the assay.
Reference and test compounds were dissolved in 100% DMSO. […] 5 μL of this solution was added to 20 μL cell medium in assay plate for a final top concentration of 10 μM. Plates were incubated at 37° C. for 180 min.
Following 180 min incubation, detection reagents were made up by combining 1 part Galacton Star Substrate with 5 parts Emerald II™ Solution, and 19 parts of PathHunter Cell Assay Buffer, respectively. 12.5 μL detection reagent was added to each well. The plates were then incubated at room temperature for 60 min. Plates were then read on Envision for 0.1 sec/well.
EC50 determinations were made from agonist dose-response curves analyzed with a curve fitting program using a 4-parameter logistic dose response equation.
Target sequence in this assay (P43220 24-463): as above
Target sequence in this assay (P32121 whole entry partner): as the sequence (P32121 whole entry partner) above

SMILES	Emax (GLP1R [1]) [%]	EC50 (GLP1R [2]) [nM]	β-arrestin internalization Bmax (POC) (GLP1R [3])	β-arrestin recruitment Bmax (%) (GLP1R [1]; partial maximum relative effect at the highest concentration tested (top 10 μM), relative to Bmax of GLP-1 (7-37), PathHunter CHO-K1 GLP1R β-Arrestin cells)
O=C(O)c1ccc2nc(Cc3ccc(-c4ccc(F)c(OCc5ccc(F)cc5F)n4)cc3F)n(C[C@@H]3CCO3)c2n1 [Compound 277, (S)-2-(4-(6-(2,4-difluorobenzyloxy)-5-fluoropyridin-2-yl)-2-fluorobenzyl)-3-(oxetan-2-ylmethyl)-3H-imidazo[4,5-b]pyridine-5-carboxylic acid]	39.3 ± 4.96	< 15	23.0	–
O=C(O)c1ccc2nc(Cc3ccc(-c4ccc(F)c(OCc5ccc(F)cc5F)n4)c(F)c3)n(C[C@@H]3CCO3)c2n1 [Compound 267, (S)-2-(4-(6-(2,4-difluorobenzyloxy)-5-fluoropyridin-2-yl)-3-fluorobenzyl)-3-(oxetan-2-ylmethyl)-3H-imidazo[4,5-b]pyridine-5-carboxylic acid]	41.7 ± 3.45	< 15	30.2 ± 6.53	–
N#Cc1ccc(COc2cccc(-c3ccc(Cc4nc5ccc(C(=O)O)cc5n4C[C@@H]4CCO4)cc3F)n2)c(F)c1 [Compound 75, (S)-2-(4-(6-(4-cyano-2-fluorobenzyloxy)pyridin-2-yl)-3-fluorobenzyl)-1-(oxetan-2-ylmethyl)-1H-benzo[d]imidazole-6-carboxylic acid]	30.4 ± 1.15	< 15	20.8 ± 10.2	–
O=C(O)c1ccc2nc(Cc3ccc(-c4cc(OCc5ccc(Cl)cc5F)ccc4F)c(F)c3)n(C[C@@H]3CCO3)c2c1 [Compound 79, (S)-2-((5′-((4-chloro-2-fluorobenzyl)oxy)-2,2′-difluoro-[1,1′-biphenyl]-4-yl)methyl)-1-(oxetan-2-ylmethyl)-1H-benzo[d]imidazole-6-carboxylic acid]	19.7	15 to 150	9.25	–
N#Cc1ccc(COc2cccc(-c3ccc(Cc4nc5ccc(C(=O)O)c(F)c5n4C[C@@H]4CCO4)cc3F)n2)c(F)c1 [Compound 307, (S)-2-(4-(6-((4-cyano-2-fluorobenzyl)oxy)pyridin-2-yl)-3-fluorobenzyl)-7-fluoro-1-(oxetan-2-ylmethyl)-1H-benzo[d]imidazole-6-carboxylic acid]	46.8 ± 7.21	< 15	33.8 ± 2.73	–
N#Cc1ccc(COc2ncc(F)c(-c3ccc(Cc4nc5ccc(C(=O)O)nc5n4C[C@@H]4CCO4)c(F)c3)n2)c(F)c1 [Compound 291, (S)-2-(4-(2-((4-cyano-2-fluorobenzyl)oxy)-5-fluoropyrimidin-4-yl)-2-fluorobenzyl)-3-(oxetan-2-ylmethyl)-3H-imidazo[4,5-b]pyridine-5-carboxylic acid]	29.4 ± 6.84	< 15	22.8 ± 0.142	–
O=C(O)c1ccc2nc(Cc3ccc(-c4cccc(OCc5ccc(F)cc5F)n4)c(F)c3)n(C[C@@H]3CCO3)c2n1 [Compound 290, (S)-2-(4-(6-((2,4-difluorobenzyl)oxy)pyridin-2-yl)-3-fluorobenzyl)-3-(oxetan-2-ylmethyl)-3H-imidazo[4,5-b]pyridine-5-carboxylic acid]	39.9 ± 4.4	< 15	21.6 ± 3.52	–
O=C(O)c1ccc2nc(Cc3ccc(-c4cccc(OCc5ccc(Cl)cc5F)n4)c(F)c3)n(C[C@@H]3CCO3)c2c1F [Compound 308, (S)-2-(4-(6-((4-chloro-2-fluorobenzyl)oxy)pyridin-2-yl)-3-fluorobenzyl)-7-fluoro-1-(oxetan-2-ylmethyl)-1H-benzo[d]imidazole-6-carboxylic acid]	62.8 ± 4.09	< 15	48.8 ± 6.11	–
O=C(O)c1ccc2nc(Cc3ccc(-c4cccc(OCc5ccc(Cl)cc5F)n4)nc3)n(C[C@@H]3CCO3)c2c1 [Compound 100, (S)-2-((6′-(4-chloro-2-fluorobenzyloxy)-2,2′-bipyridin-5-yl)methyl)-1-(oxetan-2-ylmethyl)-1H-benzo[d]imidazole-6-carboxylic acid]	0.971	> 1000	0.881	–
O=C(O)c1ccc2nc(Cc3ccc(-c4nc(OCc5ccc(Cl)cc5F)c(F)cc4F)c(F)c3)n(C[C@@H]3CCO3)c2c1 [Compound 77, (S)-2-(4-(6-((4-chloro-2-fluorobenzyl)oxy)-3,5-difluoropyridin-2-yl)-3-fluorobenzyl)-1-(oxetan-2-ylmethyl)-1H-benzo[d]imidazole-6-carboxylic acid]	39.4	< 15	22.5	–

The remaining lines, values ahead:

Emax (GLP1R [1]) [%]	EC50 (GLP1R [2]) [nM]	β-arrestin internalization Bmax (POC) (GLP1R [3])	β-arrestin recruitment Bmax (%) (GLP1R [1]; partial maximum relative effect at the highest concentration tested (top 10 μM), relative to Bmax of GLP-1 (7-37), PathHunter CHO-K1 GLP1R β-Arrestin cells)	SMILES
33.1	< 15	23.9	–	O=C(O)c1ccc2nc(Cc3ccc(-c4ccnc(OCc5ccc(Cl)cc5F)n4)cc3F)n(C[C@@H]3CCO3)c2c1 [Compound 87, (S)-2-(4-(2-((4-chloro-2-fluorobenzyl)oxy)pyrimidin-4-yl)-2-fluorobenzyl)-1-(oxetan-2-ylmethyl)-1H-benzo[d]imidazole-6-carboxylic acid]
44.6	< 15	27.8	–	O=C(O)c1ccc2nc(Cc3ccc(-c4ccc(F)c(OCc5ccc(Cl)cc5F)n4)c(F)c3)n(C[C@@H]3CCO3)c2c1 [Compound 83, (S)-2-(4-(6-((4-chloro-2-fluorobenzyl)oxy)-5-fluoropyridin-2-yl)-3-fluorobenzyl)-1-(oxetan-2-ylmethyl)-1H-benzo[d]imidazole-6-carboxylic acid]
20.1	< 15	13.8	–	O=C(O)c1ccc2nc(Cc3ccc(-c4nc(OCc5ccc(Cl)cc5F)ncc4F)c(F)c3)n(C[C@@H]3CCO3)c2c1 [Compound 82, (S)-2-(4-(2-(4-chloro-2-fluorobenzyloxy)-5-fluoropyrimidin-4-yl)-3-fluorobenzyl)-1-(oxetan-2-ylmethyl)-1H-benzo[d]imidazole-6-carboxylic acid]
–	< 15	27.3 ± 7.75	33.3	O=C(O)c1ccc2nc(Cc3ccc(-c4cccc(OCc5ccc(Cl)cc5F)n4)cc3)n(C[C@@H]3CCO3)c2c1 [Compound 94, (S)-2-(4-(6-((4-chloro-2-fluorobenzyl)oxy)pyridin-2-yl)benzyl)-1-(oxetan-2-ylmethyl)-1H-benzo[d]imidazole-6-carboxylic acid]
37	< 15	29.5	–	O=C(O)c1ccc2nc(Cc3ccc(-c4ccc(F)c(OCc5ccc(Cl)cc5F)c4)cc3F)n(C[C@@H]3CCO3)c2c1 [Compound 85]
47.3 ± 4.55	< 15	25.4 ± 1.39	–	O=C(O)c1ccc2nc(Cc3ccc(-c4cccc(OCc5ccc(Cl)cc5F)n4)c(F)c3F)n(C[C@@H]3CCO3)c2c1 [Compound 262, (S)-2-(4-(6-(4-chloro-2-fluorobenzyloxy)pyridin-2-yl)-2,3-difluorobenzyl)-1-(oxetan-2-ylmethyl)-1H-benzo[d]imidazole-6-carboxylic acid]
48.5 ± 6.64	< 15	36.5	–	O=C(O)c1ccc2nc(Cc3ccc(-c4cccc(OCc5ccc(Cl)cc5F)n4)cc3F)n(C[C@@H]3CCO3)c2n1 [Compound 281, 2-[[4-[6-[(4-chloro-2-fluoro-phenyl)methoxy]-2-pyridyl]-2-fluoro-phenyl]methyl]-3-[[(2S)-oxetan-2-yl]methyl]imidazo[4,5-b]pyridine-5-carboxylic acid]
25.3	< 15	20.0	–	O=C(O)c1ccc2nc(Cc3ccc(-c4cccc(OCc5ccc(Cl)cc5F)c4)cc3F)n(C[C@@H]3CCO3)c2c1 [Compound 89, (S)-2-((3′-((4-chloro-2-fluorobenzyl)oxy)-3-fluoro-[1,1′-biphenyl]-4-yl)methyl)-1-(oxetan-2-ylmethyl)-1H-benzo[d]imidazole-6-carboxylic acid]
1.05	> 1000	3.08	–	O=C(O)c1ccc2nc(Cc3ccc(-c4cccc(OCc5ccc(Cl)cc5F)n4)cn3)n(C[C@@H]3CCO3)c2c1 [Compound 101, (S)-2-((6-((4-chloro-2-fluorobenzyl)oxy)-[2,3′-bipyridin]-6′-yl)methyl)-1-(oxetan-2-ylmethyl)-1H-benzo[d]imidazole-6-carboxylicacid]
25.1	< 15	21.6	–	O=C(O)c1ccc2nc(Cc3ccc(-c4cccc(OCc5ccc(Cl)cc5F)c4)c(F)c3)n(C[C@@H]3CCO3)c2c1 [Compound 76, (S)-2-((3′-((4-chloro-2-fluorobenzyl)oxy)-2-fluoro-[1,1′-biphenyl]-4-yl)methyl)-1-(oxetan-2-ylmethyl)-1H-benzo[d]imidazole-6-carboxylic acid]
